Patent US20260325487A1 (BS BIOTECHNA SPOLKA AKCYJNA, priority 2023, published 2026)

Assays:
A375 = assay: SRB anti-proliferative assay, A375, with CalcuSyn combination index (Example 1); type: cell-based; conditions: Homo sapiens, A-375, 72 h, read-out: Zah. (inhibition of proliferation)
Procedure: (§1) Cells were thawed from ampoules stored in liquid nitrogen and cultured in petri dishes in appropriate culture medium according to Table 2, in a humidified 5% CO2 atmosphere at 37° C. Cells were passaged twice weekly using EDTA-Trypsin solution, pH 8. Counted cells with a viability of at least 90% as assessed with Trypan-Blue solution were used for anti-proliferative assays.
(§2) Twenty-four hours before the addition of the test compounds/combinations, cells were seeded into 384-well plates at 50 μL/well and a density of 10^3 cells/well, in the appropriate culture medium.
(§3) Solutions of the compounds were diluted in the test medium-RPMI-1640 and Opti-MEM in a 1:1 ratio, and the medium was supplemented with 2 mM glutamine and 5% fetal bovine serum FBS. After 72 h, colourimetric assessment of cell growth was performed by SRB. […] Unbound dye was removed by washing the plates (4×) in 1% (v/v) acetic acid, and protein-bound dye was extracted with 10 mM unbuffered Tris base and the optical density (A=540 nm) was determined in a BioTek Synergy H4 Hybrid computer microplate reader (BioTek Instruments USA). The entire washing/staining procedure was performed using a BioTek EL406 washing station (BioTek Instruments USA). The raw absorbance results were analysed in Microsoft Excel software using the formula:
(§4) [formula] • Where: • % Zahlnh-inhibition of proliferation • Am—absorbance of wells without cells (medium) • Ak—absorbance of control wells (cells treated with pure culture medium) • Ap—absorbance of wells treated with compounds
(§5) Each compound at the indicated concentrations was tested in triplicate in one experiment. Each experiment was repeated three times. Data analysis was supplemented with synergy assessment using CalcuSyn software. […] A CI value below 0.8 indicates synergism, 0.8-1.2 an additive effect, above 1.2 an antagonism.

SW1990 = assay: SRB anti-proliferative assay, SW1990, with CalcuSyn combination index (Example 1); type: cell-based; conditions: Homo sapiens, SW1990, 72 h, read-out: Zah. (inhibition of proliferation)
Procedure: as §1, §2, §3, §4, §5

A172 = assay: SRB anti-proliferative assay, A172, molecular combination and nanoparticles, with combination index (Example III); type: cell-based; conditions: Homo sapiens, A 172, 72 h, read-out: Zah. (inhibition of proliferation)
Procedure: (§6) Cells were thawed from ampoules stored in liquid nitrogen and cultured in petri dishes in the appropriate culture medium according to Table 16, in a humidified 5% CO2 atmosphere at 37° C. Cells were passaged twice weekly using EDTA-Trypsin solution, pH 8, as a separating agent. Counted cells with a viability of at least 90% as assessed with Trypan-Blue solution were used for anti-proliferation assays.
(§7) Twenty-four hours before the addition of the test compounds/combinations, cells were seeded into 384-well plates at 50 μL/well and a density of 10^3 cells/well, in the appropriate culture medium. […] Solutions of the compounds were diluted in the test medium—RPMI-1640 and Opti-MEM in a 1:1 ratio, and the medium was supplemented with 2 mM glutamine and 5% fetal bovine serum FBS.
as §3, with “After” for “Solutions of the compounds were diluted in the test medium-RPMI-1640 and Opti-MEM in a 1:1 ratio, and the medium was supplemented with 2 mM glutamine and 5% fetal bovine serum FBS. After”
as §4, §5

SK-MEL3 = assay: SRB anti-proliferative assay, SK-MEL3, with CalcuSyn combination index (Example 1); type: cell-based; conditions: Homo sapiens, SK-MEL3, 72 h, read-out: Zah. (inhibition of proliferation)
Procedure: as §1, §2, §3, §4, §5

BxPC3 = assay: SRB anti-proliferative assay, BxPC3, with CalcuSyn combination index (Example 1); type: cell-based; conditions: Homo sapiens, BXPC-3, 72 h, read-out: Zah. (inhibition of proliferation)
Procedure: as §1, §2, §3, §4, §5

Hs683 = assay: SRB anti-proliferative assay, Hs683, molecular combination and nanoparticles, with combination index (Example III); type: cell-based; conditions: Homo sapiens, Hs 683, 72 h, read-out: Zah. (inhibition of proliferation)
Procedure: as §6, §7
as §3, with “After” for “Solutions of the compounds were diluted in the test medium-RPMI-1640 and Opti-MEM in a 1:1 ratio, and the medium was supplemented with 2 mM glutamine and 5% fetal bovine serum FBS. After”
as §4, §5

8 cell lines = assay: SRB anti-proliferative assay, summary over the panel of 8 cell lines (Example III); type: cell-based, human; conditions: CI analysis not possible
Procedure: as §6, §7
Unbound dye was removed by washing the plates (4×) in 1% (v/v) acetic acid, and protein-bound dye was extracted with 10 mM unbuffered Tris base and the optical density (A=540 nm) was determined in a BioTek Synergy H4 Hybrid computer microplate reader (BioTek Instruments USA). […] The raw absorbance results were analysed in Microsoft Excel software using the formula:
[formula] • Where: • % Zahlnh-inhibition of proliferation • Am—absorbance of wells without cells (medium) • Ak—absorbance of control wells (cells treated with pure culture medium) • Ap—absorbance of wells treated with compounds […]

NCI-H1975 = assay: SRB anti-proliferative assay, NCI-H1975, with CalcuSyn combination index (Example 1); type: cell-based; conditions: Homo sapiens, NCI-H1975, 72 h, read-out: Zah. (inhibition of proliferation)
Procedure: as §1, §2, §3, §4, §5

`C=CCNC1=C2C[C@@H](C)C[C@H](OC)[C@H](O)[C@@H](C)/C=C(\C)[C@H](OC(N)=O)[C@@H](OC)/C=C\C=C(/C)C(=O)NC(=CC1=O)C2=O` [17AAG, 17-AAG (tanespimycin)] gave an inhibition at 0.0031 µM (A375) of 24.1%, an inhibition at 0.01 µM (A375) of 53.3% and an inhibition at 0.0314 µM (A375) of 83.2%. It also gave an inhibition at 0.1 µM (A375) of 89.2%, an inhibition at 0.3155 µM (A375) of 91.6% and an inhibition at 1 µM (A375) of 96.3%. It also gave an inhibition at 3.1546 µM (A375) of 97.1%, an inhibition at 10 µM (A375) of 97% and an inhibition at 0.0031 µM (SW1990) of -0.2%. The inhibition at 0.01 µM (SW1990) was 5.7%, the inhibition at 0.0314 µM (SW1990) was 40.7% and the inhibition at 0.1 µM (SW1990) was 81.7%. It also gave an inhibition at 0.3155 µM (SW1990) of 90.6%, an inhibition at 1 µM (SW1990) of 92.9% and an inhibition at 3.1546 µM (SW1990) of 93.5%. It also gave an inhibition at 10 µM (SW1990) of 92.6%, an inhibition at 0.0003163 µM (A172) of 6% and an inhibition at 0.001 µM (A172) of 15.7%. The inhibition at 0.0032 µM (A172) was 4.7%, the inhibition at 0.01 µM (A172) was 7.8% and the inhibition at 0.0316 µM (A172) was 20.1%. For the same compound, the inhibition at 0.1 µM (A172) was 37.4%, the inhibition at 0.3163 µM (A172) was 64.6% and the inhibition at 1 µM (A172) was 81.1%. It also gave an inhibition at 0.0031 µM (SK-MEL3) of 1.1%, an inhibition at 0.01 µM (SK-MEL3) of 14% and an inhibition at 0.0314 µM (SK-MEL3) of 40.3%. For the same compound, the inhibition at 0.1 µM (SK-MEL3) was 48.5%, the inhibition at 0.3155 µM (SK-MEL3) was 58.1% and the inhibition at 1 µM (SK-MEL3) was 58.5%. The inhibition at 3.1546 µM (SK-MEL3) was 60.7%, the inhibition at 10 µM (SK-MEL3) was 76.6% and the inhibition at 0.0031 µM (BxPC3) was 1.7%. It also gave an inhibition at 0.01 µM (BxPC3) of 2.7%, an inhibition at 0.0314 µM (BxPC3) of 24.4% and an inhibition at 0.1 µM (BxPC3) of 54.7%. For the same compound, the inhibition at 0.3155 µM (BxPC3) was 75.9%, the inhibition at 1 µM (BxPC3) was 89.4% and the inhibition at 3.1546 µM (BxPC3) was 95.3%. It also gave an inhibition at 10 µM (BxPC3) of 95.2%, an inhibition at 0.0003163 µM (Hs683) of 8.3% and an inhibition at 0.001 µM (Hs683) of 50.3%. For the same compound, the inhibition at 0.0032 µM (Hs683) was 63%, the inhibition at 0.01 µM (Hs683) was 93.9% and the inhibition at 0.0316 µM (Hs683) was 79.2%. For the same compound, the inhibition at 0.1 µM (Hs683) was 82%, the inhibition at 0.3163 µM (Hs683) was 91% and the inhibition at 1 µM (Hs683) was 94.3%. The 17-AAG activity (8 cell lines) was “low”, the inhibition at 0.0031 µM (NCI-H1975) was 10% and the inhibition at 0.01 µM (NCI-H1975) was 25.2%. For the same compound, the inhibition at 0.0314 µM (NCI-H1975) was 66.7%, the inhibition at 0.1 µM (NCI-H1975) was 84.1% and the inhibition at 0.3155 µM (NCI-H1975) was 87.6%. For the same compound, the inhibition at 1 µM (NCI-H1975) was 88.5%, the inhibition at 3.1546 µM (NCI-H1975) was 88.4% and the inhibition at 10 µM (NCI-H1975) was 86.6%.
